Data set [1] can be described thus: LogP by HPLC on reversed phase columns (EEC directive 79/831 Annex V.A8). The data set is classed as physicochemical. The conditions noted are these: method [a]: LC-UV, acidic range, 0.1% formic acid in water and acetonitrile as eluent; for chromatographic logP: reversed phase HPLC column. The procedure:
Measurement of LogP values was performed according to EEC directive 79/831 Annex V.A8 by HPLC (High Performance Liquid Chromatography) on reversed phase columns with the following methods: • ^[a] […] Lambda-max-values were determined using UV-spectra from 200 nm to 400 nm and the peak values of the chromatographic signals.

Data set [2] deals with Sphaerotheca fuliginea. Kind of data set: Example C: in vivo preventive test on Sphaerotheca fuliginea (powdery mildew on cucurbits). The conditions noted are these: Podosphaera fuliginea, 360 h; 500 ppm of active ingredient; gherkin; preventive spray; evaluated 15 days after inoculation; read-out: efficacy. The procedure: The test is evaluated 15 days after the inoculation.

The test system of a further data set is Uromyces appendiculatus. Nature of the data set: Example D: in vivo preventive test on Uromyces appendiculatus (bean rust). The conditions noted are these: 264 h, 500 ppm of active ingredient, preventive spray, evaluated 11 days after inoculation, read-out: efficacy. The procedure:
(§1) The test is evaluated 11 days after the inoculation.

Data set [3] relates to Blumeria graminis f sp. hordei. Kind of data set: Example E: in vivo preventive Blumeria test (barley). The conditions noted are these: 168 h, 500 ppm of active ingredient, preventive spray, evaluated 7 days after inoculation, read-out: efficacy. As to the method: • Solvent: 49 parts by weight of N,N-dimethylacetamide • Emulsifier: 1 part by weight of alkylaryl polyglycol ether To produce a suitable preparation of active compound, 1 part by weight of active compound or active compound combination was mixed with the stated amounts of solvent and emulsifier, and the concentrate was diluted with water to the desired concentration. To test for preventive activity, young plants were sprayed with the preparation of active compound or active compound combination at the stated rate of application. After the spray coating had been dried, the plants were dusted with spores of Blumeria graminis f sp. hordei. The plants were placed in the greenhouse at a temperature of approximately 18° C. and a relative atmospheric humidity of approximately 80% to promote the development of mildew pustules. The test was evaluated 7 days after the inoculation.

The test system of a further data set is Puccinia recondita. Nature of the data set: Example A: in vivo preventive test on Puccinia recondita (brown rust on wheat). The following applies: 264 h, 500 ppm of active ingredient, preventive spray, evaluated 11 days after inoculation, read-out: efficacy. As to the method:
as §1

The test system of data set [4] is Sphaerotheca fuliginea. Nature of the data set: Example H: in vivo preventive test on Sphaerotheca (cucumbers), comparison vs. WO-A 2010/146116. The following applies: evaluated 7 days after inoculation. As to the method: To produce a suitable preparation of active compound, 1 part by weight of active compound is mixed with the stated amounts of solvent and emulsifier, and the concentrate is diluted with water to the desired concentration. To test for preventive activity, young plants are sprayed with the preparation of active compound at the stated rate of application. After the spray coating has dried on, the plants are inoculated with an aqueous spore suspension of Sphaerotheca fuliginea. The plants are then placed in a greenhouse at approximately 23° C. and a relative atmospheric humidity of approximately 70%. The test is evaluated 7 days after the inoculation.

In the next data set the test system is Septoria tritici. Nature of the data set: Example G: in vivo 5 days preventive Septoria tritici test (wheat), comparison vs. WO-A 2010/146116. The conditions noted are these: inoculated 5 days after spraying, evaluated 21 days after inoculation. The procedure:
• Solvent: 49 parts by weight of N,N-dimethylacetamide • Emulsifier: 1 part by weight of alkylaryl polyglycol ether To produce a suitable preparation of active compound, 1 part by weight of active compound or active compound combination is mixed with the stated amounts of solvent and emulsifier, and the concentrate is diluted with water to the desired concentration. To test for preventive and long-lasting activity, young plants are sprayed with a preparation of active compound or active compound combination at the stated rate of application. After the spray coating has been dried, the plants are placed in the greenhouse at a temperature of approximately 15° C. and a relative atmospheric humidity of approximately 80%. 5 days later the plants are sprayed with a spore suspension of Septoria tritici. The plants remain for 48 hours in an incubation cabinet at approximately 20° C. and a relative atmospheric humidity of approximately 100% and afterwards for 60 hours at approximately 15° C. in a translucent incubation cabinet at a relative atmospheric humidity of approximately 100%. Then the plants are placed in the greenhouse at a temperature of approximately 15° C. and a relative atmospheric humidity of approximately 80%. The test is evaluated 21 days after the inoculation.

For the molecule `CCC1COC(Cn2cncn2)(c2ccc(Oc3ccc(OC(F)(F)F)cc3)nc2C(F)(F)F)O1` (stereo not drawn) [I.24], the LogP (usually the decadic logarithm of the partition coefficient of the neutral form, usually between octanol and water) in data set [1] was 4.09 ^[a].

On to `CCC1COC(Cn2cncn2)(c2ccc(Oc3ccc(S(F)(F)(F)(F)F)cc3)nc2C(F)(F)F)O1` (mixture of isomers) [I.01], for which, in data set [1], the LogP is 4.15^[a]. `FC(F)(F)c1nc(Oc2ccc(Cl)cc2)ccc1C1(Cn2nc[nH]c2=S)OCCO1` [I-S.02, 2-[[2-[6-(4-chlorophenoxy)-2-(trifluoromethyl)-3-pyridyl]-1,3-dioxolan-2-yl]methyl]-4H-1,2,4-triazole-3-thione]: the pest or weed control at 500 ppm (in the data set with Sphaerotheca fuliginea [2]; with Uromyces appendiculatus; in data set [3]; in the data set with Puccinia recondita) was 90 to 100% in each case. The chromatographic logP (commonly lipophilicity estimated from chromatographic retention) in data set [1] was found to be 3.06. In the case of `Clc1ccc(Oc2cc(Cl)c(C3(Cn4cncn4)OCCO3)cn2)cc1` [drawing 85, reference compound], the Efficacy in % with Sphaerotheca fuliginea [4] (rate of application 10 ppm) worked out at 14%; in the data set with Sphaerotheca fuliginea [4] (rate of application 100 ppm), 100%. As for `CC1COC(Cn2cncn2)(c2ccc(Oc3ccc(Cl)cc3)nc2C(F)(F)F)O1` (racemic) [I.09], the lipophilicity (LogP) in data set [1] was 3.46^[a]. On to `CC1COC(Cn2cncn2)(c2ccc(Oc3ccc(Cl)cc3)nc2C(F)(F)F)O1` (mixture of isomers) [I.03], for which, in data set [1], the LogP is 3.55^[a]. Take `CC1COC(Cn2cncn2)(c2ccc(Oc3ccc(Br)cc3)nc2C(F)(F)F)O1` (stereo not drawn) [I.16, 6-(4-bromophenoxy)-3-[4-methyl-2-(1,2,4-triazol-1-ylmethyl)-1,3-dioxolan-2-yl]-2-(trifluoromethyl)pyridine]: the pest or weed control at 500 ppm (in the data set with Sphaerotheca fuliginea [2]; with Uromyces appendiculatus; in data set [3]; in the data set with Puccinia recondita) was 90 to 100% in each case. Moreover, the LogP in data set [1] is reported as 3.55. In addition, in data set [1], the chromatographic logP was determined as 3.59. Take `Clc1ccc(Oc2cc(Cl)c(C3(Cn4cncn4)OCCO3)cn2)cc1` [drawing 80, reference compound]: the results for the Efficacy in % in the data set on Septoria tritici (rate of application 100 ppm) and with Septoria tritici (rate of application 500 ppm) were 50% and 80%, respectively. In the case of `CCC1COC(Cn2cncn2)(c2ccc(Oc3ccc(C(F)(F)F)cc3)nc2C(F)(F)F)O1` (stereo not drawn) [I.07, 3-[4-ethyl-2-(1,2,4-triazol-1-ylmethyl)-1,3-dioxolan-2-yl]-2-(trifluoromethyl)-6-[4-(trifluoromethyl)phenoxy]pyridine], the pest or weed control at 500 ppm (in the data set on Sphaerotheca fuliginea [2]; with Uromyces appendiculatus; in data set [3]; in the data set on Puccinia recondita) was 90 to 100% each time. This molecule came in with a chromatographic logP in data set [1] of 3.96. On to `CCCC1COC(Cn2cncn2)(c2ccc(Oc3ccc(Br)cc3)nc2C(F)(F)F)O1` (mixture of isomers) [I.08], for which, in data set [1], the LogP was 4.32^[a]. As for `CC1COC(Cn2cncn2)(c2ccc(Oc3ccc(S(F)(F)(F)(F)F)cc3)nc2C(F)(F)F)O1` (mixture of isomers) [I.19], the LogP in data set [1] was 3.85^[a]. Turning to `FC(F)(F)Oc1ccc(Oc2ccc(C3(Cn4cncn4)OCCO3)c(C(F)(F)F)n2)cc1` [I.22], in data set [1], the LogP is 3.46 ^[a]. On the same count and under the same terms, to `CC1OC(Cn2cncn2)(c2ccc(Oc3ccc(Cl)cc3)nc2C(F)(F)F)OC1C` (mixture of isomers) [I.18] belongs 3.76^[a]; to `CC1COC(Cn2cncn2)(c2ccc(Oc3ccc(C(F)(F)F)cc3)nc2C(F)(F)F)O1` (mixture of isomers) [I.10], 3.62^[a]. `CCC1COC(Cn2cncn2)(c2ccc(Oc3ccc(Cl)cc3)nc2C(F)(F)F)O1` (mixture of isomers) [I.15]: the LogP in data set [1] was 3.83^[a].

With `CC1(c2ccc(Oc3ccc(Cl)cc3)nc2C(F)(F)F)OCCO1` [XV.01, 6-(4-chlorophenoxy)-3-(2-methyl-1,3-dioxolan-2-yl)-2-(trifluoromethyl)pyridine], in data set [1], the chromatographic logP came out at 4.44. Turning to `FC(F)(F)c1nc(Oc2ccc(S(F)(F)(F)(F)F)cc2)ccc1C1(Cn2cncn2)OCCO1` [I.11], the pest or weed control at 500 ppm with Sphaerotheca fuliginea [2] was in the range of 90 to 100%; in the data set with Uromyces appendiculatus, 90 to 100%; in data set [3] it was 70 to 79%; in the data set with Puccinia recondita, 90 to 100%. The Efficacy in % turned out to be 71% in the data set on Septoria tritici (rate of application 100 ppm) and 100% in the data set on Septoria tritici (rate of application 500 ppm). The chromatographic logP in data set [1] was 3.54. With `CC1COC(Cn2cncn2)(c2ccc(Oc3ccc(OC(F)(F)F)cc3)nc2C(F)(F)F)O1` (mixture of isomers) [I.21], in data set [1], the LogP is 3.76 ^[a]. As to `CC1OC(Cn2cncn2)(c2ccc(Oc3ccc(Br)cc3)nc2C(F)(F)F)OC1C` (mixture of isomers) [I.17], the LogP in data set [1] was 3.85^[a]. Turning to `CSc1ccc(Oc2ccc(C3(Cn4cncn4)OCCO3)c(C(F)(F)F)n2)cc1` [I.20], in data set [1], the LogP is 3.05 ^[a]. Consider `FC(F)(F)c1nc(Oc2ccc(Br)cc2)ccc1C1(Cn2cncn2)OCCO1` [I.02], for which the pest or weed control at 500 ppm (in the data set on Sphaerotheca fuliginea [2]; in the data set on Uromyces appendiculatus; in data set [3]; with Puccinia recondita) was 90 to 100% each time. In addition, the Efficacy in % in the data set with Septoria tritici (rate of application 100 ppm) is 93%; with Septoria tritici (rate of application 500 ppm), 100%. For the same molecule, the chromatographic logP in data set [1] was 3.35. Regarding `CSc1ccc(Oc2ccc(C3(Cn4nc[nH]c4=S)OCCO3)c(C(F)(F)F)n2)cc1` [I-S.04], in data set [1], the lipophilicity (LogP) is 2.95 ^[a]. For `CC1COC(Cn2cncn2)(c2ccc(Oc3ccc(Cl)cc3)nc2C(F)(F)F)O1` (single isomer, unassigned) [I.12], the LogP in data set [1] was 3.48^[a]. The same measure, in the same setting: to `Cc1ccc(Oc2ccc(C3(Cn4nc[nH]c4=S)OCCO3)c(C(F)(F)F)n2)cc1` [I-S.03] belongs 2.94 ^[a]; to `FC(F)(F)c1nc(Oc2ccc(Br)cc2)ccc1C1(Cn2cncn2)OCC(C(F)(F)F)O1` (racemic) [I.26], 2.26 ^[a].

As for `CC1COC(Cn2cncn2)(c2ccc(Oc3ccc(Cl)cc3)nc2C(F)(F)F)O1` (single isomer, unassigned) [I.13], the LogP in data set [1] was 3.48^[a]. For `Cc1ccc(Oc2ccc(C3(Cn4cncn4)OCCO3)c(C(F)(F)F)n2)cc1` [I.25], in data set [1], the LogP was 3.21 ^[a].

Consider `FC(F)(F)c1nc(Oc2ccc(Br)cc2)ccc1C1(Cn2nc[nH]c2=S)OCCO1` [I-S.05], for which, in data set [1], the LogP is 3.14 ^[a]. With `CCC1COC(Cn2cncn2)(c2ccc(Oc3ccc(Br)cc3)nc2C(F)(F)F)O1` (mixture of isomers) [I.06], in data set [1], the LogP was 3.94^[a]. Take `CCCC1COC(Cn2cncn2)(c2ccc(Oc3ccc(Cl)cc3)nc2C(F)(F)F)O1` (mixture of isomers) [I.05]: in data set [1], the LogP was 4.19^[a]. As to `FC(F)(F)c1nc(Oc2ccc(Br)cc2)ccc1C1(Cn2cncn2)OCC(C(F)(F)F)O1` (racemic) [I.23], the LogP in data set [1] was 3.80 ^[a]. Regarding `FC(F)(F)c1ccc(Oc2ccc(C3(Cn4nc[nH]c4=S)OCCO3)c(C(F)(F)F)n2)cc1` [I-S.01, 2-[[2-[2-(trifluoromethyl)-6-[4-(trifluoromethyl)phenoxy]-3-pyridyl]-1,3-dioxolan-2-yl]methyl]-4H-1,2,4-triazole-3-thione], the pest or weed control at 500 ppm (with Sphaerotheca fuliginea [2]; in the data set on Uromyces appendiculatus; in data set [3]; in the data set with Puccinia recondita) was 90 to 100% throughout. This molecule also yielded a chromatographic logP in data set [1] of 3.18.

(Values after patent US20190211002A1, “NOVEL TRIAZOLE DERIVATIVES” (Bayer CropScience Aktiengesellschaft, priority 2016, published 2019).)
